Like-named read-outs stand apart in the source and are kept apart here.
Tests used:
MT-2 cells [1] = assay: Cytotoxicity in MT-2 cells; conditions: cell culture
HIV-1 [2] = test system: HIV-1
MT-2 cells [3] = test system: MT-2 cells
HIV-1 [4] = conditions: anti-HIV-1; from Mulato and Cherrington, Antiviral Research 36, 91 (1997); cited from earlier work
HIV-1 [5] = assay: microbe, parasite or virus in culture
[6] = for PMPA AUC in PBMC Mean / PMPA AUC in Plasma Mean: dog, in vivo, po; for PBMC/Plasma Exposure Ratio / Prodrug in Plasma: dogs, oral, 10 mg-equivalent of PMPA/kg
Protocol: Formulations. The prodrugs were formulated as solutions in 50 mM citric acid within 0.5 hour prior to dose. All compounds used in the studies were synthesized by Gilead Sciences. The following lots were used:
Dose Administration and Sample Collection. The in-life phase of this study was conducted in accordance with the recommendations of the “Guide for the Care and Use of Laboratory Animals” (National Institutes of Health publication 86-23) and was approved by an Institutional Animal Care and Use Committee. Fasted male beagle dogs (10±2 kg) were used for the studies. Each drug was administered as a single dose by oral gavage (1.5-2 ml/kg). The dose was 10 mg-equivalent of PMPA/kg. For PBMCs, blood samples were collected at 0 (pre-dose), 2,8, and 24 h post-dose. […] Blood (1.0 ml) was processed immediately for plasma by centrifugation at 2,000 rpm for 10 min. Plasma samples were frozen and maintained at […] until analyzed.
Peripheral Blood Mononuclear Cell (PBMC) preparation. Whole blood (8 ml) drawn at specified time points was mixed in equal proportion with phosphate buffered saline (PBS), layered onto 15 ml of Ficoll-Paque solution (Pharmacia Biotech,) and centrifuged at 400×g for 40 min. PBMC layer was removed and washed once with PBS. Formed PMBC pellet was reconstituted in 0.5 ml of PBS, cells were resuspended, counted using hemocytometer and maintained at […] until analyzed. The number of cells multiplied by the mean single-cell volume was used in calculation of intracellular concentrations. […] Agents Chemother.
Determination of PMPA and Prodrugs in plasma and PBMCs. […] Derivatized samples were then evaporated to dryness and reconstituted in 100 μl of water for HPLC analysis.
Before intracellular PMPA could be determined by HPLC, the large amounts of adenine related ribonucleotides present in the PBMC extracts had to be removed by selective oxidation.
The HPLC system was comprised of a P4000 solvent delivery system with AS3000 autoinjector and F2000 fluorescence detector (Tlermo Separation, San Jose, Calif.). […] The mobile phases used were: A, 5% acetonitrile in 25 mM potassium phosphate buffer with 5 mM tetrabutyl ammonium bromide (TBABr), pH 6.0; B, 60% acetonitrile in 25 mM potassium phosphate buffer with 5 mM TBABr, pH 6.0. The flow rate was 2 ml/min and the column temperature was maintained at 35° C. by a column oven. The gradient profile was 90% A/10% B for 10 min for PMPA and 65%A/35%B for 10 min for the prodrug. […] Data was acquired and stored by a laboratory data acquisition system (PeakPro, Beckman, Allendale, N.J.).
Pharmacokinetic Calculations. […] The AUC values were calculated using the trapezoidal rule.

[7] = test system: PLCE (porcine liver carboxyesterase); assay: in vitro; assay type: in vitro ADME; conditions: 37° C., PBS pH 7.4
Protocol: (§1) The in vitro metabolism and stability of separated diastereomers were determined in PLCE, MT-2 extract and human plasma. A biological sample listed below, 80 μL, was transferred into a screw-capped centrifuge tube and incubated at 37° C. for 5 min. A solution containing 0.2 mg/mL of the test compound in a suitable buffer, 20 μL, was added to the biological sample and mixed. The reaction mixture, 20 μL, was immediately sampled and mixed with 60 μL of methanol containing 0.015 mg/mL of 2-hydroxymethylnaphthalene as an internal standard for HPLC analysis. The sample was taken as the time-zero sample. Then, at specific time points, the reaction mixture, 20 μL, was sampled and mixed with 60 μL of methanol containing the internal standard. The mixture thus obtained was centrifuged at 15,000 G for 5 min and the supernatant was analyzed with HPLC under the conditions described below.
(1) PLCE (porcine liver carboxyesterase from Sigma, 160 u/mg protein, 21 mg protein/mL) diluted 20 fold with PBS (phosphated-buffered saline).
In the study for PLCE, the test compound was dissolved in PBS. PBS (phosphate-buffered saline, Sigma) contains 0.01 M phosphate, 0.0027 M potassium chloride, and 0.137 M sodium chloride. pH 7.4 at 37° C.
(§2) The HPLC analysis was carried out under the following conditions.

[8] = Stability in human plasma; assay type: in vitro ADME; conditions: 37° C., TBS pH 7.5
Protocol: as §1
(3) Human plasma (pooled normal human plasma from George King Biomedical Systems, Inc.)
In the study for human plasma, the test compound was dissolved in TBS. TBS (tris-buffered saline, Sigma) contains 0.05 M Tris, 0.0027 M potassium chloride, and 0.138 M sodium chloride. pH 7.5 at 37° C.
as §2

[9] = Stability / hydrolysis in MT-2 cell extract; assay type: in vitro ADME; conditions: 37° C., HEPES buffer pH 7.4
Protocol: as §1
(2) MT-2 cell extract was prepared from MT-2 cells according to the published procedure [A. Pompon, I. Lefebvre, J.-L. Imbach, S. Kahn, and D. Farquhar, “Antiviral Chemistry & Chemotherapy”, 5:91-98 (1994)] except for using HEPES buffer described below as the medium.
In the study for MT-2 cell extracts, the test compound was dissolved in HEPES buffer. HEPES buffer contains 0.010 M HEPES, 0.05 M potassium chloride, 0.005 M magnesium chloride, and 0.005 M dl-dithiothreitol. pH 7.4 at 37° C.
as §2

[10] = Incubation of radiolabeled PMPA prodrugs or PMPA in human whole blood; metabolites in plasma, PBMCs and RBCs; assay type: in vitro ADME; conditions: human, 1 h
Protocol: After 1 hour, plasma, red blood cells (RBCs) and peripheral blood mononuclear cells (PBMCs) were isolated and analyzed by HPLC with radiometric detection.

in vitro = conditions: human
[11] = activity of diastereomer A versus B
[12] = cell culture anti-HIV-1 activity, separated diastereomers and 1:1 mixtures
[13] = Human immunodeficiency virus 1, MT2

## CCOC(=O)[C@H](C)N[P@@](=O)(CO[C@H](C)Cn1cnc2c(N)ncnc21)Oc1ccccc1 (mixture of isomers) [Ala-ethyl, Phenyl PMPA, Ethyl L-Alanyl Amidate]
MT-2 cells [1]
  CC50: 60 µM
HIV-1 [2]; IC50 relative to PMPA
  Fold change: 250×
HIV-1 [2]; [11]
  A/B activity: 10×
HIV-1 [2]; [12]
  IC50: 0.02 µM

## COC(=O)[C@H](C)NP(=O)(CO[C@H](C)Cn1cnc2c(N)ncnc21)Oc1ccccc1 (mixture of isomers) [Ala-methylester]
MT-2 cells [3]
  CC50: 80 µM
HIV-1 [2]; IC50 relative to PMPA
  Fold change: 200×
HIV-1 [2]; [11]
  A/B activity: 20×
HIV-1 [2]; [12]
  IC50: 0.025 µM

## COC(=O)C(C)NP(=O)(COC(C)Cn1cnc2c(N)ncnc21)Oc1ccccc1 (single isomer, unassigned) [GS-6957a]
HIV-1 [2]
  Fold change: 670×
  IC50: 0.0075 µM

## COC(=O)[C@H](C)NP(=O)(CO[C@H](C)Cn1cnc2c(N)ncnc21)Oc1ccccc1 (single isomer, unassigned) [GS-6957b]
HIV-1 [2]
  Fold change: 33×
  IC50: 0.15 µM

## COC(=O)C(Cc1ccccc1)NP(=O)(COC(C)Cn1cnc2c(N)ncnc21)Oc1ccccc1 (single isomer, unassigned) [GS-7003a]
HIV-1 [2]
  Fold change: 500×
  IC50: 0.01 µM

## COC(=O)C(Cc1ccccc1)NP(=O)(COC(C)Cn1cnc2c(N)ncnc21)Oc1ccccc1 (single isomer, unassigned) [GS-7003b]
HIV-1 [2]
  Fold change: 50×
  IC50: 0.1 µM

## CCOC(=O)CNP(=O)(CO[C@H](C)Cn1cnc2c(N)ncnc21)Oc1ccccc1 (single isomer, unassigned) [GS-7335]
HIV-1 [2]
  Fold change: 5×
  IC50: 1 µM

## CCOC(=O)[C@H](CC)NP(=O)(CO[C@H](C)Cn1cnc2c(N)ncnc21)Oc1ccccc1 (stereo partly drawn) [ABA-ethyl]
MT-2 cells [1]
  CC50: > 100 µM
HIV-1 [2]
  A/B activity: 7.5×
  Fold change: 625×
  IC50: 0.008 µM

## Cc1cn([C@H]2C[C@H](N=[N+]=[N-])[C@@H](CO)O2)c(=O)[nH]c1=O [AZT]
HIV-1 [4]
  IC50: 0.17 ± 0.08 µM

## Nc1ncnc2c1ncn2CCOCP(=O)(O)O [Adefovir (PMEA), 9-[2-(phosphonomethoxy)ethyl]adenine]
HIV-1 [4]
  IC50: 13.4 ± 4.2 µM

## CC(C)OC(=O)[C@H](C)NP(=O)(CO[C@H](C)Cn1cnc2c(N)ncnc21)Oc1ccccc1 (stereo partly drawn) [Ala-isopropyl]
HIV-1 [5]; [13]
  IC50: 0.01 µM
HIV-1 [2]; [11]
  A/B activity: 12×

## Nc1ccn([C@@H]2CS[C@H](CO)O2)c(=O)n1 [Compound 3TC]
HIV-1 [4]
  IC50: 1.8 ± 0.25 µM

## CCOC(=O)CNP(=O)(CO[C@H](C)Cn1cnc2c(N)ncnc21)Oc1ccccc1 (stereo partly drawn) [GS-7119]
MT-2 cells [1]
  CC50: > 100 µM
HIV-1 [2]
  Fold change: 100×
  IC50: 0.05 µM
[6]
  PMPA AUC in PBMC Mean: 530
  PMPA AUC in Plasma Mean: 6.11
  PBMC/Plasma Exposure Ratio: 87
  Prodrug in Plasma: YES

## CCOC(=O)C(CC)NP(=O)(COC(C)Cn1cnc2c(N)ncnc21)Oc1ccccc1 (stereo not drawn) [GS-7342]
[7]
  PLCE hydrolysis product: Met. X
[8]
  Human Plasma Stability (HP) product: Met. Y
  Human Plasma Stability (HP) t1/2: 103
HIV-1 [2]
  IC50: 0.004 µM
HIV-1 [2]; IC50 relative to PMPA
  Fold change: 1,250×
HIV-1 [2]; read-out: HIV IC50
  IC50: 0.004 µM
[9]
  MT-2 extract hydrolysis product: Met. X & PMPA
[6]
  PMPA AUC in PBMC Mean: 1060
  PMPA AUC in Plasma Mean: 4.6
  PBMC/Plasma Exposure Ratio: 230
  Prodrug in Plasma: YES

## Cc1c(O)cccc1C(=O)N[C@@H](CSc1ccccc1)[C@H](O)CN1C[C@H]2CCCC[C@H]2C[C@H]1C(=O)NC(C)(C)C [Nelfinavir]
HIV-1 [4]
  IC50: 0.006 ± 0.002 µM

## C[C@H](Cn1cnc2c(N)ncnc21)OCP(=O)(O)O [PMPA, 9-[2-(phosphonomethoxy)propyl]adenine]
[10]
  Metabolites (% of Total Peak Area): PMPApp: 16%
HIV-1 [4]
  IC50: 6.3 ± 3.3 µM
HIV-1 [5]; [13]
  IC50: 5 µM
HIV-1 [5]; Human immunodeficiency virus 1, MT2, read-out: HIV-1 Activity IC50
  IC50: 5 µM
HIV-1 [2]
  Fold change: 1×
In vitro
  CC50: 6000 µM

## COC(=O)[C@H](Cc1ccccc1)NP(=O)(CO[C@H](C)Cn1cnc2c(N)ncnc21)Oc1ccccc1 (stereo partly drawn) [Phe-methylester]
MT-2 cells [1]
  CC50: 60 µM
HIV-1 [2]
  A/B activity: 10×
  Fold change: 170×
  IC50: 0.03 µM

## Cc1cn([C@H]2C=C[C@@H](CO)O2)c(=O)[nH]c1=O [d4T]
HIV-1 [4]
  IC50: 8 ± 2.5 µM

Source: patent publication US20040018150A1, “Prodrugs of phosphonate nucleotide analogues and methods for selecting and making same” (priority 2003, published 2004)
